Source: US20230158025A1 (UNIVERSITY OF UTAH RESEARCH FOUNDATION, priority 2020, published 2023)
Where two headings read alike, the source gives them in different places.

How the values were obtained:
recombinant human GALK1 = recombinant human GALK1 (Homo sapiens, UniProt P51570); test: hGALK1 biochemical activity assay (Kinase-Glo Plus, ATP depletion)
How it was run: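 Turnover is measured as ATP depletion by Kinase-Glo Plus luminescence after a 1 h room-temperature reaction. Compounds span 11 concentrations, 57.4 μM–0.97 nM, in final 20 mM HEPES pH 8.0 with 5 mM MgCl2. The substrate solution held 35 μM ATP; the added solution held 5 nM human or mouse GALK1 and 100 μM galactose.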

[1] = rat microsomal stability (RLM)
[2] = aqueous kinetic solubility
recombinant mouse GALK1 = recombinant mouse GALK1 (Mus musculus, UniProt Q9R0N0); test: mGALK1 biochemical activity assay (Kinase-Glo Plus, ATP depletion)
Chain of recombinant mouse GALK1 (Q9R0N0 whole entry): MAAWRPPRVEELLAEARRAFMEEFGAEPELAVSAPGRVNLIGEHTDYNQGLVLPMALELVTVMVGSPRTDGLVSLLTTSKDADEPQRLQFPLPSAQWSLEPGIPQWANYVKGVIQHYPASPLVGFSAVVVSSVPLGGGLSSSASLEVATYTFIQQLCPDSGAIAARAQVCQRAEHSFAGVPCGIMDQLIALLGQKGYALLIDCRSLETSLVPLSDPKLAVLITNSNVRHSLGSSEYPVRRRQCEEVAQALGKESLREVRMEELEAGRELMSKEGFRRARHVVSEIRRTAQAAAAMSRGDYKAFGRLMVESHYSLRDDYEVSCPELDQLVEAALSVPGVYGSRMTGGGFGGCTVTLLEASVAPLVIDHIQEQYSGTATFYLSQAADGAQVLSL
How it was run: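 Recombinant GALK1 (5 nM) with 100 μM galactose; GALK1 turnover read as ATP depletion by Kinase-Glo Plus luminescence. Reaction ran 1 h at room temperature before detection reagent was added.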

[3] = recombinant human GALK1, Kinase-Glo Plus ATP depletion, bracketed figure in the cell, e.g. (−1.2), is not defined in the text shown, read-out: hGALK
[4] = microsomal stability half-life, minutes
[5] = recombinant mouse GALK1, Kinase-Glo Plus ATP depletion, bracketed figure in the cell, e.g. (−1.2), is not defined in the text shown, read-out: mGALK
[6] = Tables 2-15, 35 μM ATP, 100 μM galactose, 1 h, bracketed figure after some values (e.g. −1.2) is undefined and not reported, read-out: hGALK IC50
[7] = recombinant human GALK1, Kinase-Glo Plus ATP depletion, read-out: hGALK
[8] = Tables 2-15, 35 μM ATP, 100 μM galactose, 1 h, bracketed figure after some values is undefined and not reported, read-out: mGALK IC50
[9] = recombinant mouse GALK1, Kinase-Glo Plus ATP depletion, read-out: mGALK
[10] = Tables 2-15, 35 μM ATP, 100 μM galactose, 1 h, bracketed figure after some values (e.g. −1.2) is undefined and not reported
[11] = recombinant human GALK1, Kinase-Glo Plus ATP depletion
[12] = Tables 2-15, 35 μM ATP, 100 μM galactose, 1 h, bracketed figure after some values is undefined and not reported
[13] = recombinant mouse GALK1, Kinase-Glo Plus ATP depletion

Chain of recombinant human GALK1 (P51570 whole entry): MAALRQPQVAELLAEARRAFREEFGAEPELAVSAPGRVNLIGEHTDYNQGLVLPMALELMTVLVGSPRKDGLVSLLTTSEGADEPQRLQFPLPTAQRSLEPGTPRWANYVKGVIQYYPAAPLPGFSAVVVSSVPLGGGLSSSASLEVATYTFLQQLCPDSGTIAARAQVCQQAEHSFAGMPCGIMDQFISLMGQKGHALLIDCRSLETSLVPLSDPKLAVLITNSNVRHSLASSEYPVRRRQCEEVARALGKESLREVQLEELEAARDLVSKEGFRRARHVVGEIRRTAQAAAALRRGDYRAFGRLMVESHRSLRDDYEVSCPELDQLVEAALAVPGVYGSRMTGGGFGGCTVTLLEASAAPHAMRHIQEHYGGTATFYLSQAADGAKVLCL

Perm. (1 × 10^−6 cm/sec) (PAMPA permeability; PAMPA) | IC50 (recombinant human GALK1; [3]) [µM] | Metab. Stabil. (m) [1, 4] [m] | Sol. ([2]; aqueous kinetic solubility) [µg/mL] | IC50 (recombinant human GALK1; [7]) [µM] | IC50 (recombinant mouse GALK1; [9]) [µM] | Metab. Stabil. (m) ([1]; microsomal stability half-life) | Structure (SMILES) | further results
208.7 1 × 10^−6 cm/sec | 3.43 | >30 | 6.5 | – | – | – | CC1=C(C(=O)Nc2nncs2)C(c2ccncc2Br)N=C(Nc2nc3ccccc3o2)N1 (stereo not drawn) [Compound 255, 2-(benzo[d]oxazol-2-ylamino)-4-(3-bromopyridin-4-yl)-6-methyl-N-(1,3,4-thiadiazol-2-yl)-1,4-dihydropyrimidine-5-carboxamide] | IC50 (recombinant mouse GALK1; [5]): 19.3 µM
1424.0 1 × 10^−6 cm/sec | – | – | 1.8 | 8.63 | 19.3 | 6.557 | CC1=C(C(=O)NCc2ccccn2)C(c2ccccc2Cl)N=C(Nc2nc3ccccc3o2)N1 (stereo not drawn) [Compound 220, 2-(benzo[d]oxazol-2-ylamino)-4-(2-chlorophenyl)-6-methyl-N-(pyridin-2-ylmethyl)-1,4-dihydropyrimidine-5-carboxamide] | IC50 (recombinant human GALK1; [6]): 8.63 µM
83.8 1 × 10^−6 cm/sec | 12.2 | >30 | <1 | – | – | – | CC1=C(C(=O)Nc2nncs2)C(c2ccccc2C)N=C(Nc2nc3ccccc3o2)N1 (stereo not drawn) [Compound 267, 2-(benzo[d]oxazol-2-ylamino)-6-methyl-N-(1,3,4-thiadiazol-2-yl)-4-(o-tolyl)-1,4-dihydropyrimidine-5-carboxamide] | IC50 (recombinant mouse GALK1; [5]): 21.7 µM
<1.3 1 × 10^−6 cm/sec | – | – | 60.6 | 7.69 | 19.3 | >30 | CC1=C(C(=O)NCc2cccc(C(=O)O)c2)C(c2ccccc2Cl)N=C(Nc2nc3ccccc3o2)N1 (stereo not drawn) [Compound 226, 3-((2-(benzo[d]oxazol-2-ylamino)-4-(2-chlorophenyl)-6-methyl-1,4-dihydropyrimidine-5-carboxamido)methyl)benzoic acid] | –
<4.9 1 × 10^−6 cm/sec | 4.85 | >30 | <1 | – | – | – | CC1=C(C(=O)Nc2nncs2)C(c2ccc(Cl)cc2Cl)N=C(Nc2nc3ccccc3o2)N1 (stereo not drawn) [Compound 261, 2-(benzo[d]oxazol-2-ylamino)-4-(2,4-dichlorophenyl)-6-methyl-N-(1,3,4-thiadiazol-2-yl)-1,4-dihydropyrimidine-5-carboxamide] | IC50 (recombinant mouse GALK1; [5]): 6.11 µM
<1 1 × 10^−6 cm/sec | 3.43 | >30 | 58.23 | – | – | – | O=C(O)CNC(=O)C1CC(=O)C2=C(C1)NC(Nc1nc3ccccc3o1)=NC2c1ccccc1Cl (stereo not drawn) [Compound 283, (2-(benzo[d]oxazol-2-ylamino)-4-(2-chlorophenyl)-5-oxo-1,4,5,6,7,8-hexahydroquinazoline-7-carbonyl)glycine] | IC50 (recombinant mouse GALK1; [5]): 4.85 µM
198.3 1 × 10^−6 cm/sec | 21.7 | >30 | 38.7 | – | – | – | CC1=C(C(=O)Nc2nncs2)C(c2c(Br)cnn2C)N=C(Nc2nc3ccccc3o2)N1 (stereo not drawn) [Compound 258, 2-(benzo[d]oxazol-2-ylamino)-4-(4-bromo-1-methyl-1H-pyrazol-5-yl)-6-methyl-N-(1,3,4-thiadiazol-2-yl)-1,4-dihydropyrimidine-5-carboxamide] | mGALK (μM) (recombinant mouse GALK1; recombinant mouse GALK1, Kinase-Glo Plus ATP depletion, bracketed figure in the cell, e.g. (−1.2), is not defined in the text shown): in- active
417.5 1 × 10^−6 cm/sec | 8.63 | >30 | 3.5 | – | – | – | CC1=C(C(=O)Nc2nncs2)C2(CCSCC2)N=C(Nc2nc3ccccc3o2)N1 [Compound 271, 2-(benzo[d]oxazol-2-ylamino)-4-methyl-N-(1,3,4-thiadiazol-2-yl)-9-thia-1,3-diazaspiro[5.5]undeca-1,4-diene-5-carboxamide] | IC50 (recombinant mouse GALK1; [5]): 24.3 µM

Second part, the compound before the results:

Structure (SMILES) | Perm. (1 × 10^−6 cm/sec) (PAMPA permeability; PAMPA) | IC50 (recombinant human GALK1; [3]) [µM] | Metab. Stabil. (m) [1, 4] [m] | Sol. ([2]; aqueous kinetic solubility) [µg/mL] | IC50 (recombinant human GALK1; [7]) [µM] | IC50 (recombinant mouse GALK1; [9]) [µM] | Metab. Stabil. (m) ([1]; microsomal stability half-life) | further results
CC1=C(C(=O)Nc2cc(C(=O)O)ccn2)C(c2ccc(N3CCCC3)cc2Cl)N=C(Nc2nc3ccc(F)cc3o2)N1 (stereo not drawn) [Compound 57, 2-(4-(2-chloro-4-(pyrrolidin-1-yl)phenyl)-2-((6-fluorobenzo[d]oxazol-2-yl)amino)-6-methyl-1,4-dihydropyrimidine-5-carboxamido)isonicotinic acid] | – | – | – | – | 4.09 | 10.9 | – | Perm. (1 × 10^−6 cm/sec) (PAMPA permeability): <1 1 × 10^−6 cm/sec; IC50 (recombinant human GALK1; [6]): 1.09 µM; Metab. Stabil. (m) ([1]; microsomal half-life): >30 m; Sol. [2]: >87 µg/mL; IC50 (recombinant mouse GALK1; [8]): 10.9 µM
CC1=C(C(=O)Nc2cc(C(=O)O)ccn2)C(c2ccc(-n3ccnc3)cc2Cl)N=C(Nc2nc3ccc(F)cc3o2)N1 (stereo not drawn) [Compound 74, 2-(4-(2-chloro-4-(1H-imidazol-1-yl)phenyl)-2-((6-fluorobenzo[d]oxazol-2-yl)amino)-6-methyl-1,4-dihydropyrimidine-5-carboxaido)isonicotinic acid] | – | – | – | – | 0.12 | 0.97 | – | Perm. (1 × 10^−6 cm/sec) (PAMPA permeability): <1 1 × 10^−6 cm/sec; Metab. Stabil. (m) ([1]; microsomal half-life): >30 m; Sol. [2]: >87 µg/mL
CC1=C(C(=O)Nc2nc(CO)cs2)C(c2ccccc2Cl)N=C(Nc2nc3ccccc3o2)N1 (stereo not drawn) [Compound 198, 2-(benzo[d]oxazol-2-ylamino)-4-(2-chlorophenyl)-N-(4-(hydroxymethyl)thiazol-2-yl)-6-methyl-1,4-dihydropyrimidine-5-carboxamide] | 59.9 1 × 10^−6 cm/sec | – | – | <1 | 17.2 | 19.3 | >30 | IC50 (recombinant human GALK1; [6]): 17.2 µM; IC50 (recombinant mouse GALK1; [8]): 19.3 µM
CCn1ncc(CNC(=O)C2=C(C)NC(Nc3nc4ccc(F)c(N)c4o3)=NC2c2ccc(C)cc2Cl)c1F (stereo not drawn) [Compound 133, 2-((7-amino-6-fluorobenzo[d]oxazol-2-yl)amino)-4-(2-chloro-4-methylphenyl)-N-((1-ethyl-5-fluoro-1H-pyrazol-4-yl)methyl)-6-methyl-1,4-dihydropyrimidine-5-carboxamide] | 427.4 1 × 10^−6 cm/sec | – | – | <1 | 0.11 | 1.09 | 7.036 | IC50 (recombinant human GALK1; [6]): 0.11 µM; IC50 (recombinant mouse GALK1; [8]): 1.09 µM
CC1=C(C(=O)NCc2ccc(Cl)cc2)C(c2ccccc2Cl)N=C(Nc2nc3ccccc3o2)N1 (stereo not drawn) [Compound 218, 2-(benzo[d]oxazol-2-ylamino)-4-(2-chlorophenyl)-N-(4-chlorobenzyl)-6-methyl-1,4-dihydropyrimidine-5-carboxamide] | 25.8 1 × 10^−6 cm/sec | – | – | <1 | – | – | 11.91 | hGALK IC50 (recombinant human GALK1; [10]): inactive; hGALK (μM) (recombinant human GALK1; [11]): in- active; mGALK IC50 (recombinant mouse GALK1; [12]): inactive; mGALK (μM) (recombinant mouse GALK1; [13]): in- active
CC1=C(C(=O)Nc2ccccn2)C(c2ccccc2Cl)N=C(Nc2nc3ccc(F)cc3o2)N1 (stereo not drawn) [Compound 43, 4-(2-chlorophenyl)-2-((6-fluorobenzo[d]oxazol-2-yl)amino)-6-methyl-N-(pyridin-2-yl)-1,4-dihydropyrimidine-5-carboxamide] | – | – | – | – | 4.32 | 10.9 | – | Perm. (1 × 10^−6 cm/sec) (PAMPA permeability): 171.11 1 × 10^−6 cm/sec; Metab. Stabil. (m) ([1]; microsomal half-life): >30 m; Sol. [2]: <1 µg/mL
CC1=C(C(=O)Nc2cc(-c3nn[nH]n3)ccn2)C(c2ccc(C)cc2Cl)N=C(Nc2nc3ccc(F)cc3o2)N1 (stereo not drawn) [Compound 88, N-(4-(2H-tetrazol-5-yl)pyridin-2-yl)-4-(2-chloro-4-methylphenyl)-2-((6-fluorobenzo[d]oxazol-2-yl)amino)-6-methyl-1,4-dihydropyrimidine-5-carboxamide] | – | – | – | – | 1.37 | 9.68 | – | Perm. (1 × 10^−6 cm/sec) (PAMPA permeability): <1 1 × 10^−6 cm/sec; Metab. Stabil. (m) ([1]; microsomal half-life): >30 m; Sol. [2]: <1 µg/mL
CC1=C(C(=O)Nc2cccc(Br)c2)C(c2ccccc2Cl)N=C(Nc2nc3ccccc3o2)N1 (stereo not drawn) [Compound 147, 2-(benzo[d]oxazol-2-ylamino)-N-(3-bromophenyl)-4-(2-chlorophenyl)-6-methyl-1,4-dihydropyrimidine-5-carboxamide] | <1.8 1 × 10^−6 cm/sec | – | – | <1 | – | – | >30 | hGALK IC50 (recombinant human GALK1; [10]): inactive; hGALK (μM) (recombinant human GALK1; [11]): in- active; mGALK IC50 (recombinant mouse GALK1; [12]): inactive; mGALK (μM) (recombinant mouse GALK1; [13]): in- active
CC1=C(C(=O)Nc2ccc(CO)nc2)C(c2ccccc2Cl)N=C(Nc2nc3ccccc3o2)N1 (stereo not drawn) [Compound 165, 2-(benzo[d]oxazol-2-ylamino)-4-(2-chlorophenyl)-N-(6-(hydroxymethyl)pyridin-3-yl)-6-methyl-1,4-dihydropyrimidine-5-carboxamide] | 766.1 1 × 10^−6 cm/sec | – | – | <1 | 4.85 | 7.69 | >30 | –
